Measured values taken from ChEMBL document CHEMBL1926636, “Isoxazoles incorporated N-substituted decahydroquinolines: a precursor to the next generation antimicrobial drug” (2012).
≈ marks a conversion by molar mass, not a printed value.

Key:
Pseudomonas aeruginosa [1] = assay: Antibacterial activity against Pseudomonas aeruginosa ATCC 9027 at 10 ug/mL after 24 hrs by disc diffusion method; type: functional; conditions: ATCC 9027, 24 h, read-out: IZ
Escherichia coli [2] = assay: Antibacterial activity against Escherichia coli ATCC 35218 at 10 ug/mL after 24 hrs by disc diffusion method; type: functional; conditions: ATCC 35218, 24 h, read-out: IZ
Salmonella typhi [3] = assay: Antibacterial activity against Salmonella typhi ATCC 6539 at 10 ug/mL after 24 hrs by disc diffusion method; type: functional, Salmonella enterica subsp. enterica serovar Typhi; conditions: Salmonella enterica, ATCC 6539, 24 h; read-out: IZ
Staphylococcus aureus [4] = assay: Antibacterial activity against Staphylococcus aureus ATCC 6538 at 10 ug/mL after 24 hrs by disc diffusion method; type: functional; conditions: ATCC 6538, 24 h, read-out: IZ
Bacillus subtilis [5] = assay: Antibacterial activity against Bacillus subtilis ATCC 6631 at 10 ug/mL after 24 hrs by disc diffusion method; type: functional; conditions: ATCC 6631, 24 h, read-out: IZ
[6] = system: Lysinibacillus sphaericus; assay: Antibacterial activity against Bacillus sphaericus ATCC 7031 at 10 ug/mL after 24 hrs by disc diffusion method; type: functional; conditions: ATCC 7031, 24 h, read-out: IZ
Pseudomonas aeruginosa [7] = assay: Antibacterial activity against Pseudomonas aeruginosa ATCC 9027 by twofold serial dilution technique; type: functional
Escherichia coli [8] = assay: Antibacterial activity against Escherichia coli ATCC 35218 by twofold serial dilution technique; type: functional
Salmonella typhi [9] = assay: Antibacterial activity against Salmonella typhi ATCC 6539 by twofold serial dilution technique; type: functional, Salmonella enterica subsp. enterica serovar Typhi; conditions: Salmonella enterica
Staphylococcus aureus [10] = assay: Antibacterial activity against Staphylococcus aureus ATCC 6538 by twofold serial dilution technique; type: functional
Bacillus subtilis [11] = assay: Antibacterial activity against Bacillus subtilis ATCC 6631 by twofold serial dilution technique; type: functional
[12] = system: Lysinibacillus sphaericus; assay: Antibacterial activity against Bacillus sphaericus ATCC 7031 by twofold serial dilution technique; type: functional
Candida albicans [13] = assay: Antifungal activity against Candida albicans ATCC 90028 at 10 ug/mL after 72 hrs by agar cup plate method; type: functional; conditions: ATCC 90028, 72 h, read-out: IZ
Candida albicans [14] = assay: Antifungal activity against Candida albicans PYCC 3436 at 10 ug/mL after 72 hrs by agar cup plate method; type: functional; conditions: PYCC 3436, 72 h, read-out: IZ
Aspergillus niger [15] = assay: Antifungal activity against Aspergillus niger ATCC 16404 at 10 ug/mL after 72 hrs by agar cup plate method; type: functional; conditions: ATCC 16404, 72 h, read-out: IZ
Aspergillus fumigatus [16] = assay: Antifungal activity against Aspergillus fumigatus ATCC 28212 at 10 ug/mL after 72 hrs by agar cup plate method; type: functional; conditions: ATCC 28212, 72 h, read-out: IZ
Candida albicans [17] = assay: Antifungal activity against Candida albicans ATCC 90028 by twofold serial dilution technique; type: functional
Candida albicans [18] = assay: Antifungal activity against Candida albicans PYCC 3436 by twofold serial dilution technique; type: functional
Aspergillus niger [19] = assay: Antifungal activity against Aspergillus niger ATCC 16404 by twofold serial dilution technique; type: functional
Aspergillus fumigatus [20] = assay: Antifungal activity against Aspergillus fumigatus ATCC 28212 by twofold serial dilution technique; type: functional

| Compound | zone of inhibition at 10 µg/mL (Pseudomonas aeruginosa [1]) | zone of inhibition at 10 µg/mL (Escherichia coli [2]) | zone of inhibition at 10 µg/mL (Salmonella typhi [3]) | zone of inhibition at 10 µg/mL (Staphylococcus aureus [4]) | zone of inhibition at 10 µg/mL (Bacillus subtilis [5]) | zone of inhibition at 10 µg/mL [6] | MIC99 (Pseudomonas aeruginosa [7]) | MIC99 (Escherichia coli [8]) | MIC99 (Salmonella typhi [9]) | MIC99 (Staphylococcus aureus [10]) | MIC99 (Bacillus subtilis [11]) | MIC99 [12] | zone of inhibition at 10 µg/mL (Candida albicans [13]) | zone of inhibition at 10 µg/mL (Candida albicans [14]) | zone of inhibition at 10 µg/mL (Aspergillus niger [15]) | zone of inhibition at 10 µg/mL (Aspergillus fumigatus [16]) | MIC99 (Candida albicans [17]) | MIC99 (Candida albicans [18]) | MIC99 (Aspergillus niger [19]) | MIC99 (Aspergillus fumigatus [20]) |
| --- | --- | --- | --- | --- | --- | --- | --- | --- | --- | --- | --- | --- | --- | --- | --- | --- | --- | --- | --- | --- |
| c1ccc(CN2C(c3ccccc3)C3=C(NOC3c3ccccc3)C3CCCCC32)cc1 (stereo not given) | 3 mm | 4 mm | 3 mm | 10 mm | 4 mm | 11 mm | 100 µg/mL (≈ 237 µM) | 100 µg/mL (≈ 237 µM) | > 100 µg/mL | 100 µg/mL (≈ 237 µM) | 100 µg/mL (≈ 237 µM) | 100 µg/mL (≈ 237 µM) | 7 mm | 10 mm | 4 mm | 2 mm | > 100 µg/mL | 50 µg/mL (≈ 118 µM) | > 100 µg/mL | 100 µg/mL (≈ 237 µM) |
| Clc1ccccc1C1ONC2=C1C(c1ccccc1)N(Cc1ccccc1)C1CCCCC21 (stereo not given) | 6 mm | 7 mm | 9 mm | 12 mm | 5 mm | 13 mm | 25 µg/mL (≈ 54.7 µM) | 25 µg/mL (≈ 54.7 µM) | > 100 µg/mL | 50 µg/mL (≈ 109 µM) | 50 µg/mL (≈ 109 µM) | 50 µg/mL (≈ 109 µM) | 22 mm | 16 mm | 14 mm | 5 mm | 25 µg/mL (≈ 54.7 µM) | 25 µg/mL (≈ 54.7 µM) | 100 µg/mL (≈ 219 µM) | 25 µg/mL (≈ 54.7 µM) |
| O=[N+]([O-])c1cccc(C2ONC3=C2C(c2ccccc2)N(Cc2ccccc2)C2CCCCC32)c1 (stereo not given) | 5 mm | 5 mm | 8 mm | 8 mm | 6 mm | 9 mm | 25 µg/mL (≈ 53.5 µM) | 50 µg/mL (≈ 107 µM) | > 100 µg/mL | 100 µg/mL (≈ 214 µM) | 50 µg/mL (≈ 107 µM) | 100 µg/mL (≈ 214 µM) | 24 mm | 16 mm | 21 mm | 5 mm | 25 µg/mL (≈ 53.5 µM) | 25 µg/mL (≈ 53.5 µM) | 100 µg/mL (≈ 214 µM) | 12.5 µg/mL (≈ 26.7 µM) |
| COc1ccc(C2ONC3=C2C(c2ccccc2)N(Cc2ccccc2)C2CCCCC32)cc1 (stereo not given) | 4 mm | 6 mm | 11 mm | 14 mm | 5 mm | 7 mm | 100 µg/mL (≈ 221 µM) | 25 µg/mL (≈ 55.2 µM) | 100 µg/mL (≈ 221 µM) | 50 µg/mL (≈ 110 µM) | 100 µg/mL (≈ 221 µM) | 100 µg/mL (≈ 221 µM) | 14 mm | 12 mm | 7 mm | 3 mm | 50 µg/mL (≈ 110 µM) | 50 µg/mL (≈ 110 µM) | > 100 µg/mL | 100 µg/mL (≈ 221 µM) |
| Clc1ccc(C2ONC3=C2C(c2ccccc2)N(Cc2ccccc2)C2CCCCC32)cc1 (stereo not given) | 5 mm | 4 mm | 9 mm | 14 mm | 6 mm | 16 mm | 25 µg/mL (≈ 54.7 µM) | 50 µg/mL (≈ 109 µM) | > 100 µg/mL | 50 µg/mL (≈ 109 µM) | 50 µg/mL (≈ 109 µM) | 25 µg/mL (≈ 54.7 µM) | 21 mm | 18 mm | 16 mm | 4 mm | 25 µg/mL (≈ 54.7 µM) | 12.5 µg/mL (≈ 27.4 µM) | 100 µg/mL (≈ 219 µM) | 50 µg/mL (≈ 109 µM) |
| c1ccc(CN2C(c3ccccc3)C3=C(NOC3c3ccco3)C3CCCCC32)cc1 (stereo not given) | 4 mm | 3 mm | 2 mm | 5 mm | 5 mm | 12 mm | 50 µg/mL (≈ 121 µM) | 100 µg/mL (≈ 242 µM) | > 100 µg/mL | 100 µg/mL (≈ 242 µM) | 50 µg/mL (≈ 121 µM) | 50 µg/mL (≈ 121 µM) | 12 mm | 4 mm | 4 mm | 4 mm | 100 µg/mL (≈ 242 µM) | 100 µg/mL (≈ 242 µM) | > 100 µg/mL | 50 µg/mL (≈ 121 µM) |
| c1ccc(CN2C(c3ccccc3)C3=C(NOC3c3ccc4c(c3)OCO4)C3CCCCC32)cc1 (stereo not given) | 5 mm | 4 mm | 7 mm | 8 mm | 5 mm | 11 mm | 25 µg/mL (≈ 53.6 µM) | 50 µg/mL (≈ 107 µM) | > 100 µg/mL | 100 µg/mL (≈ 214 µM) | 100 µg/mL (≈ 214 µM) | 50 µg/mL (≈ 107 µM) | 16 mm | 6 mm | 11 mm | 4 mm | 50 µg/mL (≈ 107 µM) | 100 µg/mL (≈ 214 µM) | 100 µg/mL (≈ 214 µM) | 50 µg/mL (≈ 107 µM) |
| c1ccc(CN2C(c3ccccc3)C3=C(NOC3c3c[nH]c4ccccc34)C3CCCCC32)cc1 (stereo not given) | 5 mm | 7 mm | 7 mm | 11 mm | 3 mm | 6 mm | 25 µg/mL (≈ 54.2 µM) | 25 µg/mL (≈ 54.2 µM) | > 100 µg/mL | 50 µg/mL (≈ 108 µM) | > 100 µg/mL | 100 µg/mL (≈ 217 µM) | 13 mm | 11 mm | 9 mm | 5 mm | 100 µg/mL (≈ 217 µM) | 50 µg/mL (≈ 108 µM) | > 100 µg/mL | 25 µg/mL (≈ 54.2 µM) |
| COc1ccc(C2ONC3=C2C(c2ccccc2)N(Cc2ccccc2)C2CCCCC32)cc1OC (stereo not given) | 4 mm | 6 mm | 12 mm | 9 mm | 7 mm | 9 mm | 25 µg/mL (≈ 51.8 µM) | 50 µg/mL (≈ 104 µM) | 100 µg/mL (≈ 207 µM) | 100 µg/mL (≈ 207 µM) | 50 µg/mL (≈ 104 µM) | 100 µg/mL (≈ 207 µM) | 15 mm | 9 mm | 14 mm | 6 mm | 50 µg/mL (≈ 104 µM) | 50 µg/mL (≈ 104 µM) | 100 µg/mL (≈ 207 µM) | 12.5 µg/mL (≈ 25.9 µM) |
| O=C(O)c1cn(C2CC2)c2cc(N3CCNCC3)c(F)cc2c1=O [CIPROFLOXACIN] | 8 mm | 9 mm | 39 mm | 17 mm | 9 mm | 24 mm | 12.5 µg/mL (≈ 37.7 µM) | 18 µg/mL (≈ 54.3 µM) | 50 µg/mL (≈ 151 µM) | 25 µg/mL (≈ 75.4 µM) | 25 µg/mL (≈ 75.4 µM) | 20 µg/mL (≈ 60.4 µM) |  |  |  |  |  |  |  |  |
| CC(=O)N1CCN(c2ccc(OCC3COC(Cn4ccnc4)(c4ccc(Cl)cc4Cl)O3)cc2)CC1 (stereo not given) [KETOCONAZOLE] |  |  |  |  |  |  |  |  |  |  |  |  | 22 mm | 22 mm | 25 mm | 10 mm | 25 µg/mL (≈ 47 µM) | 7.8 µg/mL (≈ 14.7 µM) | 50 µg/mL (≈ 94.1 µM) | 7 µg/mL (≈ 13.2 µM) |
